{"source": "patent US7632825B2", "about": "“Methods of decreasing or preventing pain using spicamycin derivatives” (Bayer Pharmaceuticals Corporation, priority 2000, dated 2009)", "key": {"Male Sprague-Dawley rats": {"tested_on": "Male Sprague-Dawley rats", "test": "Mechanical allodynia (von Frey filaments) in rat segmental spinal nerve injury and chronic constriction nerve injury models, results combined", "type": "in vivo", "conditions": "single injection", "description": "Male Sprague-Dawley rats (Charles River Laboratories) weighing 150-200 g were used to evaluate the analgesic properties of the SAN-Gly formulation. The animals were housed in groups of three in plastic cages with soft bedding and under a 12 hour light/dark cycle. Food and water were available ad libitum. After one week of acclimatization to the laboratory conditions, all animals were tested to establish a baseline mechanical allodynia.\nSince different animal models of pain can provide different experimental results, SAN-Gly was tested using two rat models. All experiments were performed in a single-blinded fashion, i.e., the experimenter was not aware of which rats received the control saline and which rats received the SAN-Gly formulation.\nOne rat model used was based on an experimentally produced segmental spinal nerve injury (Kim et al., Pain 50:355-363, 1992). One week after the acclimatization to laboratory conditions, baseline measurements were recorded and surgery was performed as described in Kim et al., supra. Rats were anesthetized with halothane in oxygen and placed in a prone position. A midline skin incision at L4-S2 was made, and paraspinal muscles were separated from the spinous processes in the L4-S2 region. […]\nThe rats were allowed to recover from surgery for at least a week. […] Both groups were then monitored for allodynia at various time points after surgery. […]"}, "[1]": {"conditions": "compared with KRN5500; cited from earlier work"}, "[2]": {"tested_on": "primary afferent-evoked excitatory postsynaptic currents (EPSCs) from lamina II", "test": "Electrophysiological recording of primary afferent-evoked EPSCs in lumbar spinal cord slices from spared-nerve injury animals", "type": "cell-based", "description": "Electrophysiological recordings were done on 650 μm thick transverse slices of lumbar spinal cord (from spared-nerve injury animals) with attached L4 dorsal root that were perfused with ice cold Krebs' solution ([in mM]: NaCl 117, KCl 3.6, CaCl2 2.5, MgCl2 1.2, NaH2PO4 1.2, NaHCO3 25 and glucose 11) saturated with 95% O2 and 5% CO2. To record primary afferent-evoked excitatory postsynaptic currents (EPSCs) from lamina II, whole cells were patch-clamped and then voltage-clamped at −70 mV. Orthodromicstimulation of L4 dorsal root was performed with a suction electrode attached to a constant current stimulator and graded intensity stimulation sufficient to recruit different afferent populations (Aβ, Aδ, and C-fibers) was used. Resistance of patch pipettes were 5-10 MW when filled with (in mM): Cs2SO4 110, CaCl2 0.5, MgCl2 2, EGTA 5, HEPES 5, TEA 5, ATP-Mg salt 5. Currents were amplified (Axopatch 200A), filtered at 2 kHz, digitized at 5 kHz and analyzed using pCLAMP 6 (Axon Instruments). SAN-Gly was dissolved in ice cold KREBs and bath-applied at two concentrations ([…]). […] In addition, as expected, the same concentration of SAN had no effect."}, "[3]": {"conditions": "100 mM bath-applied, whole-cell patch clamp at -70 mV, observed in three out of five cells"}}, "data": [{"smiles": "NCC(=O)N[C@@H]1[C@@H](O)[C@@H](O)[C@@H](Nc2ncnc3[nH]cnc23)O[C@H]1[C@@H](O)CO", "note": "[SAN-Gly, 4′-N-glycyl spicamycin amino nucleoside]", "values": [{"measurement": "recovery towards baseline pain behavior", "setting": "Male Sprague-Dawley rats; 100 mg/kg body weight, single bolus in the tail vein, both animal models combined (FIG. 1)", "value": 60, "unit": "%"}, {"measurement": "persistence of increased pain tolerance", "setting": "Male Sprague-Dawley rats; 100 mg/kg, tail vein, days after surgery as printed, both models combined", "value": "at least 7 days"}, {"measurement": "cytotoxicity relative to water-insoluble spicamycin derivatives such as KRN5500", "setting": "[1]", "value": "less cytotoxic"}, {"measurement": "amplitude of EPSCs", "setting": "[2]; [3]", "value": "reduced the amplitude"}, {"measurement": "latency of EPSCs", "setting": "[2]; [3]", "value": "increased the latency"}, {"measurement": "effect on EPSCs upon washout of the drug", "setting": "[2]; after 100 mM bath application", "value": "reversed upon washout"}]}]}
